# Assay results as given in patent US20140031275A1, “METHODS OF ERADICATING BACTERIAL CELL POPULATIONS” (priority 2011, published 2014).
# Tests used:
# [1] = system: stationary S. aureus; conditions: high concentrations (24 μg/ml); sterilization not reported; cited from earlier work
# [2] = system: stationary MRSA 37 culture; type: cell-based, S. aureus
# Method: Black line represents the limit of detection
# The ability of ADEP 10c to kill an S. aureus MRSA strain was also evaluated.
# (§1) Resistance to methicillin and oxacillin is the hallmark of MRSA.
# [3] = from literature, healthy volunteers; cited from earlier work
# [4] = system: stationary state S. aureus SA113; test: Antibiotic action against stationary state S. aureus SA113 (MSSA), cfu counts; type: cell-based; conditions: for effect on stationary population of S. aureus cells: antibiotic alone, 5-day incubation, FIG. 1
# Method: FIG. 1 is a graph showing antibiotic action against stationary state S. aureus. SA113.
# (§2) Referring to FIG. 1, antibiotic action against stationary state S. aureus. SA113, an MSSA commonly used as a S. aureus model strain, was evaluated. S. aureus SA113 was grown in Mueller-Hinton broth for 24 hours. Antibiotics were added at day 0. Time-points were taken every 24 hours. 100 μl of culture was removed, centrifuged for one minute, and the cells were resuspended in PBS. Serial dilutions from neat to 10^−6 were spotted on MHA plates and incubated overnight at 37° C. The results shown in FIG. 1 are the averages of three independent experiments.
# [5] = system: MRSA strain; test: Oxacillin MIC of MRSA strain; type: cell-based, S. aureus; conditions: Staphylococcus aureus
# From the text: as §1
# [6] = system: S. aureus; test: MIC against S. aureus; type: cell-based
# Method: as §2
compound,measurement,setting,value
CCCCCCCCCC(=O)N[C@@H](Cc1c[nH]c2ccccc12)C(=O)N[C@H](CC(N)=O)C(=O)N[C@@H](CC(=O)O)C(=O)N[C@@H]1C(=O)NCC(=O)N[C@@H](CCCN)C(=O)N[C@@H](CC(=O)O)C(=O)N[C@H](C)C(=O)N[C@@H](CC(=O)O)C(=O)NCC(=O)N[C@H](CO)C(=O)N[C@@H]([C@H](C)CC(=O)O)C(=O)N[C@@H](CC(=O)c2ccccc2N)C(=O)O[C@@H]1C [Daptomycin],activity against stationary S. aureus,[1],some activity
Cc1onc(-c2ccccc2)c1C(=O)N[C@@H]1C(=O)N2[C@@H]1SC(C)(C)[C@@H]2C(=O)O [oxacillin],killing of clpP mutants of MRSA,[2],killed clpP mutants of MRSA
same,killing of stationary MRSA cells,[2]; oxacillin alone,no effect
same,clinically achievable concentrations,[3],16 µg/mL
same,effect on stationary population of S. aureus cells,[4],little effect
same,MIC,[5],> 75 µg/mL
O=C(O)c1cn(C2CC2)c2cc(N3CCNCC3)c(F)cc2c1=O [ciprofloxacin],effect on stationary population of S. aureus cells,[4],little effect
CO[C@H]1/C=C/O[C@@]2(C)Oc3c(C)c(O)c4c(O)c(c(/C=N/N5CCN(C)CC5)c(O)c4c3C2=O)NC(=O)/C(C)=C\C=C\[C@H](C)[C@H](O)[C@@H](C)[C@@H](O)[C@@H](C)[C@H](OC(C)=O)[C@@H]1C [rifampicin],clinically achievable concentrations,[3],7.2 µg/mL
CC(=O)NC[C@H]1CN(c2ccc(N3CCOCC3)c(F)c2)C(=O)O1 [linezolid],clinically achievable concentrations,[3],14.5 µg/mL
same,effect on stationary population of S. aureus cells,[4],little effect
"L-proline, 3-fluoro-N-[(2E)-1-oxo-2-hepten-1-yl]-L-phenylalanyl-L-seryl-L-prolyl-(2S)-4-methyl-2-piperidinecarbonyl-L-alanyl-, (6→2)-lactone [ADEP 10c]",MIC,[6]; S. aureus,5 µg/mL
same,MIC,[6]; tested with a variety of MSSA and MRSA isolates,5 µg/mL
same,cell numbers of the stationary population,[4],about 10^4 per ml
same,"killing of stationary cells, ADEP 10c compared with ADEP 4",[4],more efficacious at killing stationary cells
